Laboratory results from patent US20100056516A1 (priority 2006, published 2010).
pIC50: −log10 of the molar value.

Columns and labels:
[1] = system: HXB2 virus; assay: microbe, parasite or virus in culture; type: cell-based, HIV; details: Human immunodeficiency virus 1, HXB2, HeLaP4-2, read-out: antiviral IC50 (SCIA-B)
Procedure: An assay for measuring the inhibition of acute HIV infection with HeLa P4-2 cells in a single cycle infectivity assay (SCIA-A) was conducted in accordance with Joyce, J. G., et al., J. Biol. Chem., 2002, 277, 45811, Hazuda, D. J. et al., Science, 2000, 287, 646, and Kimpton, J. et al, J. Virol. 1992, 66, 2232. Infectious virus was produced by transfecting 293T cells with HIV proviral DNA in which the integrase gene was derived from a IIIB isolate and the remainder of the HIV genome was derived from the NL4-3 isolate.
This assay B for measuring the inhibition of acute HIV infection with HeLa P4-2 cells in a single cycle infectivity assay (SCIA-B) is essentially the same as Assay A described above, except that HXB2 virus is employed instead of the IIIb isolate.

[2] = biological target: HIV integrase (Human immunodeficiency virus type 1 group M subtype B, UniProt P04585); assay: integrase strand transfer assay (STA); type: biochemical; details: integrase strand transfer; read-out: IC50 in the STA assay

SMILES | pIC50 [1] | pIC50 [2]
O=c1c(-c2ccccc2)c(O)c2cc(-c3ccccc3-n3cccn3)cnc2n1O [Example 53, 1,4-Dihydroxy-3-phenyl-6-[2-(1H-pyrazol-1-yl)phenyl]-1,8-naphthyridin-2(1H)-one] | > 4.00 | > 4.30
O=c1c(-c2ccccc2)c(O)c2cc(-c3cccc(-c4ccccc4)c3)cnc2n1O [Example 54, 6-Biphenyl-3-yl-1,4-dihydroxy-3-phenyl-1,8-naphthyridin-2(1H)-one] | > 4.00 | > 4.30
O=c1c(-c2ccccc2)c(O)c2cc(/C=C/c3ccccc3)cnc2n1O [Example 55, 1,4-Dihydroxy-3-phenyl-6-[(E)-2-phenylvinyl]-1,8-naphthyridin-2(1H)-one] | > 4.00 | > 4.30
O=c1c(-c2ccccc2)c(O)c2cc(-c3ccc4ccccc4c3)cnc2n1O [Example 56, 1,4-Dihydroxy-6-(2-naphthyl)-3-phenyl-1,8-naphthyridin-2(1H)-one] | > 4.00 | > 4.30
CCOC(=O)c1c(O)c2cc(-c3cccnc3)cnc2n(O)c1=O [Example 58, Ethyl 1,4-dihydroxy-2-oxo-6-pyridin-3-yl-1,2-dihydro-1,8-naphthyridine-3-carboxylate] | > 4.00 | > 4.30
CCOC(=O)c1c(O)c2cc(-c3cccc(C#N)c3)cnc2n(O)c1=O [Example 60, Ethyl 6-(3-cyanophenyl)-1,4-dihydroxy-2-oxo-1,2-dihydro-1,8-naphthyridine-3-carboxylate] | < 4.00 | > 4.30
CCOC(=O)c1c(O)c2cc(-c3ccccc3OC)cnc2n(O)c1=O [Example 61, Ethyl 1,4-dihydroxy-6-(2-methoxyphenyl)-2-oxo-1,2-dihydro-1,8-naphthyridine-3-carboxylate] | > 4.00 | > 4.30
CCOC(=O)c1c(O)c2cc(-c3cccc(OC)c3)cnc2n(O)c1=O [Example 62, Ethyl 1,4-dihydroxy-6-(3-methoxyphenyl)-2-oxo-1,2-dihydro-1,8-naphthyridine-3-carboxylate] | > 4.00 | > 4.30
CCOC(=O)c1c(O)c2cc(Cc3ccccc3)cnc2n(O)c1=O [Example 63, Ethyl 6-benzyl-1,4-dihydroxy-2-oxo-1,2-dihydro-1,8-naphthyridine-3-carboxylate] | > 4.00 | > 4.30
CCOC(=O)c1c(O)c2cc(-c3cccc(-c4ccccc4)c3)cnc2n(O)c1=O [Example 64, Ethyl 6-biphenyl-3-yl-1,4-dihydroxy-2-oxo-1,2-dihydro-1,8-naphthyridine-3-carboxylate] | > 4.00 | > 4.30
CCOC(=O)c1c(O)c2cc(-c3cc(C)cc(C)c3)cnc2n(O)c1=O [Example 65, Ethyl 6-(3,5-dimethylphenyl)-1,4-dihydroxy-2-oxo-1,2-dihydro-1,8-napthyridine-3-carboxylate] | > 4.00 | > 4.30
O=c1c(Cc2ccccc2)c(O)c2cc(-c3ccccc3)cnc2n1O [Example 67, 3-Benzyl-1,4-dihydroxy-6-phenyl-1,8-naphthyridin-2(1H)-one] | > 4.00 | > 4.30
Nc1cccc(-c2cnc3c(c2)c(O)cc(=O)n3O)c1 [Example 68, 6-(3-Aminophenyl)-1,4-dihydroxy-1,8-naphthyridin-2(1H)-one] | > 4.00 | > 4.30
CS(=O)(=O)Nc1cccc(-c2cnc3c(c2)c(O)cc(=O)n3O)c1 [Example 69, N-[3-(5,8-Dihydroxy-7-oxo-7,8-dihydro-1,8-naphthyridin-3-yl)phenyl]methane-sulfonamide] | > 4.00 | > 4.30
CCOC(=O)c1c(O)c2cc(C(C)=O)cnc2n(O)c1=O [Example 70, ethyl 6-acetyl-1,4-dihydroxy-2-oxo-1,2-dihydro-1,8-naphthyridine-3-carboxylate] | > 4.00 | > 4.30
CC(=O)c1cnc2c(c1)c(O)c(-c1ccccc1)c(=O)n2O [Example 71, 6-acetyl-1,4-dihydroxy-3-phenyl-1,8-naphthyridin-2(1H)-one] | > 4.00 | > 4.30
O=c1c(Br)c(O)c2cc(-c3ccncc3)cnc2n1O [Example 72, 3-Bromo-1,4-dihydroxy-6-pyridin-4-yl-1,8-naphthyridin-2(1H)-one] | > 4.00 | > 4.30
CCc1cnc2c(c1)c(O)c(-c1ccccc1)c(=O)n2O [Example 73, 6-Ethyl-1,4-dihydroxy-3-phenyl-1,8-naphthyridin-2(1H)-one] | > 4.00 | > 4.30

SMILES | pIC50 [1] | pIC50 [2]
CC(Br)Cc1cnc2c(c1)c(O)c(-c1ccccc1)c(=O)n2O (stereo not shown) [Example 74, 6-(2-Bromopropyl)-1,4-dihydroxy-3-phenyl-1,8-naphthyridin-2(1H)-one] | > 4.00 | > 4.30
O=c1c(-c2ccccc2)c(O)c2cc(-c3cccs3)cnc2n1O [Example 75, 6-(thien-2-yl)-1,4-dihydroxy-3-phenyl-1,8-napthyridin-2(1H)-one] | > 4.00 | > 4.30
CC(NCc1cccc(Cl)c1)c1cnc2c(c1)c(O)c(-c1ccccc1)c(=O)n2O (stereo not shown) [Example 76, 6-{1-[(3-Chlorobenzyl)amino]ethyl}-1,4-dihydroxy-3-phenyl-1,8-napthyridin-2(1H)-one] | > 4.00 | > 4.30
CCOC(=O)c1c(O)c2cc(C(=O)NCc3ccccc3)cnc2n(O)c1=O [Example 77, Ethyl 6-[(benzylamino)carbonyl]-1,4-dihydroxy-2-oxo-1,2-dihydro-1,8-naphthyridine-3-carboxylate] | > 4.00 | > 4.30
CCOC(=O)c1c(O)c2cc(C(=O)NCc3cccc(OC)c3)cnc2n(O)c1=O [Example 78, Ethyl 1,4-dihydroxy-6-{[3-methoxybenzyl)amino] carbonyl}-2-oxo-1,2-dihydro-1,8-naphthyridine-3-carboxylate] | > 4.00 | > 4.30
CCOC(=O)c1c(O)c2cc(C(=O)NCc3ccccc3OC)cnc2n(O)c1=O [Example 79, Ethyl 1,4-dihydroxy-6-{[2-methoxybenzyl)amino] carbonyl}-2-oxo-1,2-dihydro-1,8-naphthyridine-3-carboxylate] | > 4.00 | > 4.30
CCOC(=O)c1c(O)c2cc(C(=O)N(C)Cc3ccccc3)cnc2n(O)c1=O [Example 80, Ethyl 6-{[benzyl(methyl)amino]carbonyl}-1,4-dihydroxy-2-oxo-1,2-dihydro-1,8-naphthyridine-3-carboxylate] | > 4.00 | > 4.30
CCOC(=O)c1c(O)c2cc(C(=O)N3CCCCC3CCc3ccccc3)cnc2n(O)c1=O (stereo not shown) [Example 82, Ethyl 1,4-dihydroxy-2-oxo-6-{[2-(2-phenylethyl)piperidin-1-yl]carbonyl}-1,2-dihydro-1,8-naphthyridine-3-carboxylate] | > 4.00 | > 4.30
CCOC(=O)c1c(O)c2cc(C(=O)N3CCC(CCCc4ccccc4)CC3)cnc2n(O)c1=O [Example 83, Ethyl 1,4-dihydroxy-2-oxo-6-{[4-(3-phenylpropyl)piperidin-1-yl]carbonyl}-1,2-dihydro-1,8-naphthyridine-3-carboxylate] | > 4.00 | > 4.30
CCOC(=O)c1c(O)c2cc(C(=O)N3CCC(CCc4ccccc4)CC3)cnc2n(O)c1=O [Example 84, Ethyl 1,4-dihydroxy-2-oxo-6-{[4-(2-phenylethyl)piperidin-1-yl]carbonyl}-1,2-dihydro-1,8-naphthyridine-3-carboxylate] | > 4.00 | > 4.30
CCOC(=O)c1c(O)c2cc(C(=O)N3CCC(Cc4ccccc4)C3)cnc2n(O)c1=O (stereo not shown) [Example 85, Ethyl 6-[(3-benzylpyrrolidin-1-yl)carbonyl]-1,4-dihydroxy-2-oxo-1,2-dihydro-1,8-naphthyridine-3-carboxylate] | > 4.00 | > 4.30
CCOC(=O)c1c(O)c2cc(C(=O)NC3CCCCC3)cnc2n(O)c1=O [Example 86, ethyl-6-[(cyclohexylamino)carbonyl]-1,4-dihydroxy-2-oxo-1,2-dihydro-1,8-naphthyridine-3-carboxylate] | > 4.00 | > 4.30
O=C(NCc1ccccc1)c1cnc2c(c1)c(O)c(C(=O)NCc1ccccc1)c(=O)n2O [Example 87, N,N′-Dibenzyl-1,4-dihydroxy-2-oxo-1,2-dihydro-1,8-naphthyridine-3,6-dicarboxamide] | > 4.00 | > 4.30
CCOC(=O)c1ccnc2c1c(O)cc(=O)n2O [Example 88, Ethyl 5,8-dihydroxy-7-oxo-7,8-dihydro-1,8-naphthyridine-4-carboxylate] | > 4.00 | > 4.30
CCOC(=O)c1c(O)c2cc(Oc3ccc(N)cc3)cnc2n(O)c1=O [Example 89, Ethyl 6-(4-aminophenoxy)-1,4-dihydroxy-2-oxo-1,2-dihydro-1,8-naphthyridine-3-carboxylate] | > 4.00 | > 4.30
CCOC(=O)c1c(O)c2cc(Oc3ccc(N(CC)CC)cc3)cnc2n(O)c1=O [Example 90, Ethyl 6-[4-(diethylamino)phenoxy]-1,4-dihydroxy-2-oxo-1,2-dihydro-1,8-naphthyridine-3-carboxylate] | > 4.00 | > 4.30
COC(=O)c1cnc2c(c1)c(O)c(C(=O)NCc1ccccc1)c(=O)n2O [Example 91, Methyl 6-[(benzylamino)carbonyl]-5,8-dihydroxy-7-oxo-7,8-dihydro-1,8-naphthyridine-3-carboxylate] | > 4.00 | > 4.30
